Experimental data taken from PubChem BioAssay AID1918999 (Molecular Pharmacology Branch, DTP, NCI, 2023).

Test system: 556581-035-R-J1-PDC complex spheroid growth
Test: Anticancer human tumor 556581-035-R-J1-PDC patient-derived ovarian carcinoma cell line growth inhibition [AhR]
Settings: for IC50: curve of first compound; for viability, T/C: stronger effect = lower value
How it was run: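 Complex tumor spheroids co-cultured with HUVEC and human MSC stroma; AhR antagonists tested in combination with standard-of-care and investigational agents. Top concentration at or near clinical Cmax (else 10 microM), half-log dilutions; growth expressed as percent test/control.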
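For viability, T/C in this document: compound exposure lasted 7 days; 100% = DMSO vehicle control growth.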

IC50 (second compound 0.1 µM): > 10 µM
IC50 (second compound 0.316 µM): > 10 µM
IC50 (second compound 1 µM): > 10 µM
IC50 (second compound 3.16 µM): > 10 µM
IC50 (second compound 10 µM): > 10 µM
Structure (SMILES): CC(C)c1c(-c2ccccc2)nc2c(C#N)c[nH]n2c1=O + Cc1cncc(-c2nc(NCCc3c[nH]c4ccccc34)c3ncn(C(C)C)c3n2)c1
viability, T/C (second compound 0.1 µM, first compound 0.0316 µM): 110%
viability, T/C (second compound 0.1 µM, first compound 0.1 µM): 106%
viability, T/C (second compound 0.1 µM, first compound 0.316 µM): 102%
viability, T/C (second compound 0.1 µM, first compound 1 µM): 103%
viability, T/C (second compound 0.1 µM, first compound 3.16 µM): 108%
viability, T/C (second compound 0.1 µM, first compound 10 µM): 88.5%
viability, T/C (second compound 0.316 µM, first compound 0.0316 µM): 106%
viability, T/C (second compound 0.316 µM, first compound 0.1 µM): 110%
viability, T/C (second compound 0.316 µM, first compound 0.316 µM): 96.9%
viability, T/C (second compound 0.316 µM, first compound 1 µM): 108%
viability, T/C (second compound 0.316 µM, first compound 3.16 µM): 95.6%
viability, T/C (second compound 0.316 µM, first compound 10 µM): 96.3%
viability, T/C (second compound 1 µM, first compound 0.0316 µM): 97.4%
viability, T/C (second compound 1 µM, first compound 0.1 µM): 107%
viability, T/C (second compound 1 µM, first compound 0.316 µM): 114%
viability, T/C (second compound 1 µM, first compound 1 µM): 102%
viability, T/C (second compound 1 µM, first compound 3.16 µM): 91.8%
viability, T/C (second compound 1 µM, first compound 10 µM): 102%
viability, T/C (second compound 3.16 µM, first compound 0.0316 µM): 98.6%
viability, T/C (second compound 3.16 µM, first compound 0.1 µM): 104%
viability, T/C (second compound 3.16 µM, first compound 0.316 µM): 99.2%
viability, T/C (second compound 3.16 µM, first compound 1 µM): 92.7%
viability, T/C (second compound 3.16 µM, first compound 3.16 µM): 95.5%
viability, T/C (second compound 3.16 µM, first compound 10 µM): 90.5%
viability, T/C (second compound 10 µM, first compound 0.0316 µM): 76.5%
viability, T/C (second compound 10 µM, first compound 0.1 µM): 84%
viability, T/C (second compound 10 µM, first compound 0.316 µM): 90%
viability, T/C (second compound 10 µM, first compound 1 µM): 71.1%
viability, T/C (second compound 10 µM, first compound 3.16 µM): 68.2%
viability, T/C (second compound 10 µM, first compound 10 µM): 70.7%
